As usually defined, the IC50 is the point on the concentration scale where inhibition reaches its midpoint.

Two compounds from patent publication US20230091336A1, “CANNABINOID COMPOSITIONS” (priority 2020, published 2023) can be followed below.

One experiment concerns SOCE in Jurkat T cells. Description: SOCE Fura-2 bioassay in Jurkat cells. Particulars: for effect on SOCE Ca^2+ signals, pure compounds: 10 μM, 1 μM thapsigargin, FIG. 7A, 7C; for IC50: Homo sapiens, read-out: IC50 SOCE, purified cannabinoids, Jurkat, Table 5. It counts as cell-based, human.
Experiment [1] has as its system SOCE in HEK-293 human embryonic kidney cells. Description: SOCE Fura-2 bioassay in HEK293 cells. In kind it is cell-based. Particulars: for IC50: Homo sapiens, HEK293, read-out: IC50 SOCE, purified cannabinoids, HEK-293, Table 5.
Experiment [2] concerns SOCE in Luva human mast cells. Description: SOCE Fura-2 bioassay in Luva cells. The conditions noted are these: Homo sapiens, Mast cell, read-out: IC50 SOCE, purified cannabinoids, Luva; Table 5.
Description: (§3) Briefly, SOCE inhibition experiments were performed as described in Example 8, using each of the hemp extracts listed below and in Tables 6A and 6B at six concentrations each in each of the five cell types listed above to obtain dose response curves, as shown in FIGS. 11A-11SS. […] All data are averages of three independent runs±SEM. […] Hemp extracts used in FIGS. 11A-11SS are: Sour Space Candy (SSC), Hawaiian Haze (HH), Special Sauce (SS), Suver Haze (SH), White CBG (WCBG), Elektra (ELEK), Cherry Wine (CW), Lifter (LIF), Grape Soda (GS).
Experiment [3] concerns SOCE in THP-1 human monocytes. Description: SOCE Fura-2 bioassay in THP-1 cells. Particulars: for IC50: Homo sapiens, THP-1, read-out: IC50 SOCE, purified cannabinoids.
Experiment [4] has as its system SOCE in RBL-2H3 rat mast cells. Description: SOCE Fura-2 bioassay in RBL-2H3 cells. The conditions noted are these: Rattus norvegicus, RBL-2H3, read-out: IC50 SOCE, purified cannabinoids, RBL-2H3; Table 5.
Description: as §3
For a further experiment, the system named is CRAC channels (ICRAC). Description: Whole-cell patch clamp of IP3-induced ICRAC in Jurkat cells. The conditions noted are these: 10 μM, 50 μM IP3. In kind it is cell-based, human. As to the method:
The ability of CBGA to inhibit store-operated calcium entry (SOCE) within cells was experimentally interrogated (see FIG. 12). Jurkat cells were perfused with 50 μM IP3 to induce store depletion and activation of CRAC channels (the resulting Ca^2+ inward current is known as ICRAC). ICRAC is a long-lasting inward current at −120 mV membrane potential (black trace) that can be blocked by 10 μM CBGA (gray trace).
(§1) Inward CRAC currents were induced at −120 mV (gray trace) and outward currents at +40 mV (black trace, where CRAC currents reverse and are essentially absent). At the +40 mV voltage potential, TRPM7 channels produce monovalent outward currents. Perfusion of 50 μM IP3 activates ICRAC at −120 mV as above and the removal of intracellular ATP slowly activates TRPM7 current at +40 mV. Application of 10 μM CBGA blocks both outward TRPM7 and inward CRAC currents (see FIG. 13, black and gray traces, respectively). Without being bound by theory, CBGA may also block TRPM7's kinase activity, similar to other TRPM7 blockers such as NS8593.

In experiment [5] the test system is SOCE-mediated increases in intracellular Ca^2+. Description: SOCE dose-response of CBGA (FIG. 15). In kind it is cell-based. Particulars: read-out: IC50 inhibition of SOCE-mediated increases in intracellular Ca^2+. The source says: (§2) Data from dose-response curves for the inhibition of TRPM7 currents (dark gray symbols) obtained in experiments shown in FIG. 14 and SOCE-mediated increases in intracellular Ca^2+ (light gray symbols) are shown in FIG. 15.

Experiment [6] addresses T1, TRPM7 (Homo sapiens, UniProt Q96QT4). Description: Whole-cell patch clamp of TRPM7 outward current in Jurkat cells. In kind it is cell-based. The conditions noted are these: 10 μM. On the set-up: endogenous in cells; host or cells: Jurkat. The method, then:
as §1
Target sequence in this assay (Q96QT4 whole entry): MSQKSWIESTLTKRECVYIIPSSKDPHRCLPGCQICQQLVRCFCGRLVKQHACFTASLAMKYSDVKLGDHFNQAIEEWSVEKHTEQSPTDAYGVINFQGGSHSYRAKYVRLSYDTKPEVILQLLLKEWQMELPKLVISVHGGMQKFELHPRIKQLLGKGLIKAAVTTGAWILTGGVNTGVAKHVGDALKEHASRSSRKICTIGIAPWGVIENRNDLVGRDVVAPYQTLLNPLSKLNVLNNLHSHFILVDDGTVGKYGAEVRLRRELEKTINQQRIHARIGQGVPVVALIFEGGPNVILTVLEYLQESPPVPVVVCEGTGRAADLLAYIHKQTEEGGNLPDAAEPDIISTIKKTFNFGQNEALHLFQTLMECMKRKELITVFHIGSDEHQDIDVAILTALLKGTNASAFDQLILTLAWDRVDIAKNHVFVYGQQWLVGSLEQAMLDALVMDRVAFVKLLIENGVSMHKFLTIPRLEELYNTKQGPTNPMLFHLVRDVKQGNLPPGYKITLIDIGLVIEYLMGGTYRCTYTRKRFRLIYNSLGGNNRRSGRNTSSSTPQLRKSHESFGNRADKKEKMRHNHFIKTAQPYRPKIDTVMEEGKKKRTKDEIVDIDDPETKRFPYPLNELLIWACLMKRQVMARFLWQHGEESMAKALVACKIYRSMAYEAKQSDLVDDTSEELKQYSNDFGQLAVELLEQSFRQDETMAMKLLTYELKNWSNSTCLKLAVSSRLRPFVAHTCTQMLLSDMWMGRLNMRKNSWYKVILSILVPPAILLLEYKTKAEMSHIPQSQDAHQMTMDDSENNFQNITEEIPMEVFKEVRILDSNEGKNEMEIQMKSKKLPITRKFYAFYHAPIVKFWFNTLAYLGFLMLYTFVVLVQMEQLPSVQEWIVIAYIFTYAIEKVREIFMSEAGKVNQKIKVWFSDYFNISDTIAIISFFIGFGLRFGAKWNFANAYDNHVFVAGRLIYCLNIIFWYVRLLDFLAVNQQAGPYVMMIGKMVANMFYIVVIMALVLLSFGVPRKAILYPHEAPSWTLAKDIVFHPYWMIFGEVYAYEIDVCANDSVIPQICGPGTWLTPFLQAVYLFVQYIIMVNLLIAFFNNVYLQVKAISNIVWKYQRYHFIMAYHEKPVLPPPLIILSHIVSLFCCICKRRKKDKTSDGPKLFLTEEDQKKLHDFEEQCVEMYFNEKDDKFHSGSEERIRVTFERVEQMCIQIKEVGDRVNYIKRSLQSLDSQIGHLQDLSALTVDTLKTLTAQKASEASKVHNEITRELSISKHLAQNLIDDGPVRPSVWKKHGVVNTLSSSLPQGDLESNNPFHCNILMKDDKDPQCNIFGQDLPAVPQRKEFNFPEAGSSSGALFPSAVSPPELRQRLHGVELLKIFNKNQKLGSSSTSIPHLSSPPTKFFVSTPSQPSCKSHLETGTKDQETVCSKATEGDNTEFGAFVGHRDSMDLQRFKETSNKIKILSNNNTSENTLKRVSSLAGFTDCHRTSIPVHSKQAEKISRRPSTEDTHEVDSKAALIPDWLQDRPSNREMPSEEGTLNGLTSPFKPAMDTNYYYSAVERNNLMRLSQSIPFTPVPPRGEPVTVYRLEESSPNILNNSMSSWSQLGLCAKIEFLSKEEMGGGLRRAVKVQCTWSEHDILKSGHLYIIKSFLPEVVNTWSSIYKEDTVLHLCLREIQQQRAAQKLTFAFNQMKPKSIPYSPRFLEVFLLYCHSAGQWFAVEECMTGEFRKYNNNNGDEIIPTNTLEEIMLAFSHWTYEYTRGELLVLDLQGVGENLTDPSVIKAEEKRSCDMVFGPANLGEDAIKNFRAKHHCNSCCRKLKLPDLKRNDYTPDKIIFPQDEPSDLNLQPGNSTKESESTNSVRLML
Background: Patch clamp records ionic current or voltage across a cell membrane.

For experiment [7], the target named is T1, TRPM7. Description: Whole-cell patch clamp of TRPM7 over-expressed in HEK293 cells. It counts as cell-based. On the set-up: expressed in transfected cells; host or cells: HEK293. Particulars: HEK293 over-expressing TRPM7. The method, then: Activation of TRPM7 over-expressed in HEK293 cells by perfusing the cells with intracellular solution containing 0 ATP and 0 Mg^2+, resulting in fast and maximal activation of TRPM7 outward currents at +40 mV is shown in FIG. 14.
as §2
Target sequence in this assay (Q96QT4 whole entry, species assumed): as the sequence (Q96QT4 whole entry) above

As for `C=C(C)[C@@H]1CCC(C)=C[C@H]1c1c(O)cc(CCCCC)cc1O` [CBD, (1′R,2′R)-5′-methyl-4-penlyl-2′-(prop-1-en-2-yl)-1′,2′,3′,4′-tetrahydro-[1,1′-biphenyl]-2,6-diol], the “effect on SOCE Ca^2+ signals, pure compounds” value in the experiment on SOCE in Jurkat T cells is “low to no effects”. Also, the IC50 in the experiment with SOCE in Jurkat T cells was 7.42 µM; in experiment [1], > 50 µM; in [2], 2.53 µM; in experiment [3], > 50 µM; in experiment [4], > 50 µM. Besides, the “combinatory effect on SOCE inhibition when paired with CBGA (isobolographic analysis)” value in the experiment with SOCE in Jurkat T cells (pairs expected to inhibit 50%, FIGS. 10A-10T) is recorded as “Simple additive”. Moreover, in experiment [3] (THP-1, 10 μM cannabinoid + 2.2 μM CBGA, FIG. 10Z), the “combinatory effect when paired with 2.2 μM CBGA” value is reported as “sub-additive”.
As for `CCCCCc1cc(O)c(C/C=C(\C)CCC=C(C)C)c(O)c1C(=O)O` [CBGA, (E)-3-(3,7-dimethylocta-2,6-dien-1-yl)-2,4-dihydroxy-6-pentylbenzoic acid], the “effect on SOCE Ca^2+ signals, pure compounds” value in the experiment on SOCE in Jurkat T cells is “fully block the Ca^2+ signals”. For the same compound, the IC50 in the experiment on SOCE in Jurkat T cells is 0.53 µM; in experiment [1], 3.6 µM; in experiment [5], ~2 µM; in experiment [2], 0.27 µM; in experiment [3] it was 2.21 µM; in experiment [4], 5.72 µM. Also, the IC50 on TRPM7 [7] (FIG. 15, read-out: IC50 inhibition of TRPM7 currents) is ~3 µM. The “inhibitory effect in immune cells compared with non-immune HEK293 cells” value in experiment [1] (10 μM, HEK293 (FIG. 8) vs immune cells) was “more potent”. Also, the “block of inward calcium current ICRAC at −120 mV” value in the experiment on CRAC channels (ICRAC) is reported as “completely blocks”. Also, on TRPM7 [6], the “block of outward TRPM7 current at +40 mV” value is listed as “blocks”. In addition, the “block of TRPM7 current at +40 mV” value at TRPM7 [7] (1, 3, 10 or 30 μM, 0 ATP, 0 Mg^2+) is given as “dose-dependent block”.
